This is an account of results in ChEMBL document CHEMBL3882246, “Benzoxazole kinase inhibitors and methods of use” (2010).

Data set [1] can be described thus: Antiproliferative activity against human PC3 cells measured after 72 hrs by Alamar blue dye-based fluorescence analysis. It counts as functional, cell-based, PC-3. Conditions: for pEC50: Homo sapiens, PC-3, 72 h. Background: The colour change of resazurin is a common sign of viable cells or microbes.
Data set [2] is described as follows: Antiproliferative activity against human 143B cells measured after 72 hrs by Alamar blue dye-based fluorescence analysis. The format is functional, cell-based.
A short description of data set [3]: Antiproliferative activity against human SKHEP1 cells measured after 72 hrs by Alamar blue dye-based fluorescence analysis. It counts as functional, cell-based. To be noted: sk-hep1.
A short description of data set [4]: Antiproliferative activity against human HT1080 cells measured after 72 hrs by Alamar blue dye-based fluorescence analysis. To be noted: ht-1080. The format is functional, cell-based.
Data set [5] can be described thus: Antiproliferative activity against human MCF7-218 cells measured after 72 hrs by Alamar blue dye-based fluorescence analysis. The format is functional, cell-based.
Data set [6] in a line: Antiproliferative activity against human MCF7-FL cells measured after 72 hrs by Alamar blue dye-based fluorescence analysis. It counts as functional, cell-based.
Data set [7] is described as follows: Antiproliferative activity against human BT474 cells measured after 72 hrs by Alamar blue dye-based fluorescence analysis. The format is functional, cell-based. To be noted: bt-474.
Data set [8] in a line: Antiproliferative activity against human MIAPaCa2 cells measured after 72 hrs by Alamar blue dye-based fluorescence analysis. To be noted: mia paca-2. It counts as functional, cell-based.
Data set [9] in a line: Antiproliferative activity against human HCT116 cells measured after 72 hrs by Alamar blue dye-based fluorescence analysis. The format is functional, cell-based. Conditions: hct-116.
Data set [10] is described as follows: Antiproliferative activity against human BxPC3 cells measured after 72 hrs by Alamar blue dye-based fluorescence analysis. The format is functional, cell-based. To be noted: bxpc-3.
Data set [11] is described as follows: Antiproliferative activity against human 786-O cells measured after 72 hrs by Alamar blue dye-based fluorescence analysis. It counts as functional, cell-based. To be noted: 786-0.
A short description of data set [12]: Antiproliferative activity against human HepG2 cells measured after 72 hrs by Alamar blue dye-based fluorescence analysis. It counts as functional, cell-based.
A short description of data set [13]: Antiproliferative activity against human COLO205 cells measured after 72 hrs by Alamar blue dye-based fluorescence analysis. To be noted: colo 205. The format is functional, cell-based.
The nature of data set [14]: Antiproliferative activity against human LNCAP cells measured after 72 hrs by Alamar blue dye-based fluorescence analysis. The format is functional, cell-based.
Data set [15] concerns U-87MG ATCC. Description: Inhibition of mTORC1/2 in human U87 cells assessed as inhibition of Akt-phosphorylation at S473 residue by Western blot analysis. It counts as cell-based. For orientation: In western blotting, separated proteins are transferred to a membrane and probed.
In data set [16] the target is Serine/threonine-protein kinase mTOR (Homo sapiens) (UniProt P42345). Description: Inhibition of mTOR in human U87 cells assessed as reduction in p4EBP1 phosphorylation by Western blot method. To be noted: U-87MG ATCC. The format is cell-based.
The target is the same in data set [17]. As to the kind of experiment: Inhibition of mTOR in human U87 cells assessed as reduction in pRAS40 phosphorylation by Western blot method. It counts as cell-based. To be noted: U-87MG ATCC.
A short description of data set [18]: Toxicity in mouse xenografted with human U87 cells assessed as weight loss at 0.3 to 3 mg/kg measured after 14 days. It counts as organism-based, U-87MG ATCC. To be noted: in vivo, 336 h.
The target of data set [19] is Ribosomal protein S6 kinase beta-1 (Homo sapiens) (UniProt P23443). As to the kind of experiment: Inhibition of mTOR pS6K in human U87 cells assessed as inhibition of RAS40 phosphorylation by Western blot analysis. The format is cell-based. Conditions: U-87MG ATCC.
Ribosomal protein S6 kinase beta-1 (Homo sapiens), sequence (P23443 whole entry, looked up): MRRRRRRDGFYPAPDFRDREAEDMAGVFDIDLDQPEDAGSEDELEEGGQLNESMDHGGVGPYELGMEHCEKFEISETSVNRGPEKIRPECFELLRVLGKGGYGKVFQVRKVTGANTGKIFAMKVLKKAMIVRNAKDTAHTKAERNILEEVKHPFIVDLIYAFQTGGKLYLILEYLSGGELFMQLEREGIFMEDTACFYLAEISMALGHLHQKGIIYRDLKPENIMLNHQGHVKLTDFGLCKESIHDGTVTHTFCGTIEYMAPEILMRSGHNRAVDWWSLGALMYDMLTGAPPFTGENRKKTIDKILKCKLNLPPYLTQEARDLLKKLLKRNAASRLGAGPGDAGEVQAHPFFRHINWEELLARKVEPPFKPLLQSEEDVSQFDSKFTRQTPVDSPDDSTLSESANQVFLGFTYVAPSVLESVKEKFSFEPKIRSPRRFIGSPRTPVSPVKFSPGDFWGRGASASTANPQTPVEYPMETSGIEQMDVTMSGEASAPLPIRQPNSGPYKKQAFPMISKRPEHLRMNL
For data set [20], the system named is U-87MG ATCC. As to the kind of experiment: Antitumor activity against human U87 cells xenografted in mouse assessed as tumor growth inhibition at 0.3 to 3 mg/kg measured after 14 days. The format is functional, organism-based. A general note: A xenograft is tissue or cells of one species grown in another, often human tumour cells in immunodeficient mice.
Data set [21] addresses Serine/threonine-protein kinase mTOR (Homo sapiens) (UniProt P42345). As to the kind of experiment: Inhibition of mTOR in human U87 cells assessed as reduction in pAKT phosphorylation at residue […] by Western blot method. It counts as cell-based. To be noted: U-87MG ATCC.
Data set [22] addresses Ribosomal protein S6 kinase beta-1 (Homo sapiens) (UniProt P23443). Description: Inhibition of mTOR pS6K in human U87 cells assessed as inhibition of 4EBP1 phosphorylation by Western blot analysis. The format is cell-based. To be noted: U-87MG ATCC.

pEC50: −log10 of the molar value. Activity calls are given as the source filed them. The rule behind the calls is not given here.

As to `CC(C)n1cc(-c2ccc3oc(N)nc3c2)c2c(N)ncnc21`, in data set [1], the pEC50 is over 7.00.

On to `CC(=O)Nc1nc2cc(-c3nn(C(C)C)c4ncnc(N)c34)ccc2o1`, for which the pEC50 in [1] was over 6.00.

Turning to `CC(=O)Nc1noc2cc(-c3nn(C(C)C)c4ncnc(N)c34)ccc12`, the pEC50 in data set [1] was under 5.00.

The compound `CC(=O)N1CCC(n2nc(-c3ccc4oc(N)nc4c3)c3c(N)ncnc32)CC1` showed a negative logarithm of the EC50 (pEC50) in [1] of over 5.00.

With `CC(C)n1nc(-c2ccc3c(N)noc3c2)c2c(N)ncnc21`, the pEC50 in data set [1] is under 5.00.

`Nc1nc2cc(-c3nn(C4CCC(N5CCOCC5)CC4)c4ncnc(N)c34)ccc2o1` (configuration not stated) showed a negative logarithm of the EC50 (pEC50) in data set [1] of over 6.00.

Turning to `CC(C)n1nc(-c2ccc3onc(N)c3c2)c2c(N)ncnc21`, the pEC50 in data set [1] was under 5.00.

For the compound `Nc1nc2cc(-c3cn(C4CCOCC4)c4ncnc(N)c34)ccc2o1`, the pEC50 in data set [1] was over 7.00.

In [1], `CC(C)n1nc(-c2ccc3nc(N)oc3c2)c2c(N)ncnc21` had a pEC50 of over 5.00.

Consider `Nc1nc2cc(-c3nn(C4CCOCC4)c4ncnc(N)c34)ccc2o1`, for which, in data set [1], the pEC50 is over 7.00.

In the case of `COc1cccc2c1C(=O)c1c(O)c3c(c(O)c1C2=O)C[C@@](O)(C(=O)CO)C[C@@H]3O[C@H]1C[C@H](N)[C@H](O)[C@H](C)O1` [DOXORUBICIN], the IC50 entry in [2], in [3], in data set [4], in data set [5], in [6] and in [7] was “Active” each time.

`O=c1[nH]cc(F)c(=O)[nH]1` [FLUOROURACIL]: the IC50 entry in [8], in data set [9], in data set [10], in data set [11] and in data set [12] was “Active” in each case.

Turning to `CCc1c2c(nc3ccc(OC(=O)N4CCC(N5CCCCC5)CC4)cc13)-c1cc3c(c(=O)n1C2)COC(=O)[C@]3(O)CC` [IRINOTECAN], the IC50 entry in [1] (pc-3) and in data set [13] was “Active” in each case.

For the compound `CC(=O)O[C@H]1C(=O)[C@@]2(C)[C@H]([C@H](OC(=O)c3ccccc3)[C@]3(O)C[C@H](OC(=O)[C@H](O)[C@@H](NC(=O)c4ccccc4)c4ccccc4)C(C)=C1C3(C)C)[C@]1(OC(C)=O)CO[C@@H]1C[C@@H]2O` [PACLITAXEL], in [14], the IC50 entry is “Active”.

With `CC(C)n1nc(-c2ccc3oc(N)nc3c2)c2c(N)ncnc21` [SAPANISERTIB], the inhibition entry in data set [15] is “Dose-dependent effect”. In addition, the inhibition result in data set [16], in data set [17], in [19], in data set [21] and in data set [22] was “Active” throughout. Further, the Activity result in data set [18] is given as “Non-Toxic”. Moreover, in data set [20], the “growth inhibition (GI)” value was “Active”.

A word on the pEC50: it is −log10 of the EC50, conventionally taken in molar units. Low readings indicate a high EC50, high ones a low EC50.
